Data: article PMC4619619, “Diversity of Active States in TMT Opsins” (PLoS ONE, 2015)

Experiments:
[1] = biological target: T1, medaka TMT1A opsin (C-terminally truncated) (Oryzias latipes, UniProt R9R6D2); experiment: UV-visible spectroscopy; HPLC of chromophore; format: binding; details: covalent (Schiff base); formed in situ by orange light (>540 nm) from the all-trans state; 0 °C
T1 construct: gene tmtops1a; C-terminal 63 residues deleted; C-terminal rho1D4 tag (ETSQVAPA) kept; HEK293T, pMT4; purified in dodecyl maltoside, also membranes; cDNA cloned from medaka brain
T1 sequence (R9R6D2 1-342): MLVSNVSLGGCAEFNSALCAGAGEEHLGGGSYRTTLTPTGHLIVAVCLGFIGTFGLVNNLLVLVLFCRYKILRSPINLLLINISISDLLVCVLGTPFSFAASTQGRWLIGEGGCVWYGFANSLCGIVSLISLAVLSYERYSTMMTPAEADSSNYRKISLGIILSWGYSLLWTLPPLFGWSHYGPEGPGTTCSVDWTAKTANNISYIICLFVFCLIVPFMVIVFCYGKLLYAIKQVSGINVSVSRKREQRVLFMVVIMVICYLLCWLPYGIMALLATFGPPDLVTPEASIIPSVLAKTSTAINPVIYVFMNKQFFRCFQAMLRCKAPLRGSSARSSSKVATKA

medaka TMT2 opsin [2] = biological target: T2, medaka TMT2 opsin (Oryzias latipes, UniProt R9R6C6); experiment: UV-visible spectroscopy; HPLC of chromophore; format: binding; details: covalent (Schiff base); reconstituted pigment in the dark; 0 °C, pH 6.5, 0.02% dodecyl maltoside
T2 construct: gene tmtops2; full length; C-terminal rho1D4 tag (ETSQVAPA) kept; HEK293T, pMT4; partially purified in dodecyl maltoside, also membranes; cDNA cloned from medaka brain
T2 sequence (R9R6C6 1-355): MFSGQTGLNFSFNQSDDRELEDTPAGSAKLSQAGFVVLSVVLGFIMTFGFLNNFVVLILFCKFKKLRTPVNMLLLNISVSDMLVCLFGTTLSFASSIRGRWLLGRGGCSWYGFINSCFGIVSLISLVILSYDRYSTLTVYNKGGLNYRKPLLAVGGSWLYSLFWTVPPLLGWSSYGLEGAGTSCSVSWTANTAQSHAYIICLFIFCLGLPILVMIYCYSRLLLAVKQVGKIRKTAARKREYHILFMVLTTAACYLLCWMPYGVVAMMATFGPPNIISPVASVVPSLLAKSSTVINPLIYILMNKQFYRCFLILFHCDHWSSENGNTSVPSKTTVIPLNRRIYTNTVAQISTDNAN

full-length TMT1A opsin = biological target: T3, full-length TMT1A opsin (Oryzias latipes, UniProt R9R6D2); experiment: UV-visible spectroscopy; format: binding; details: covalent (Schiff base); reconstituted pigment
T3 construct: gene tmtops1a; full length; C-terminal rho1D4 tag (ETSQVAPA) kept; HEK293T, pMT4; purified
T3 sequence (R9R6D2 1-405): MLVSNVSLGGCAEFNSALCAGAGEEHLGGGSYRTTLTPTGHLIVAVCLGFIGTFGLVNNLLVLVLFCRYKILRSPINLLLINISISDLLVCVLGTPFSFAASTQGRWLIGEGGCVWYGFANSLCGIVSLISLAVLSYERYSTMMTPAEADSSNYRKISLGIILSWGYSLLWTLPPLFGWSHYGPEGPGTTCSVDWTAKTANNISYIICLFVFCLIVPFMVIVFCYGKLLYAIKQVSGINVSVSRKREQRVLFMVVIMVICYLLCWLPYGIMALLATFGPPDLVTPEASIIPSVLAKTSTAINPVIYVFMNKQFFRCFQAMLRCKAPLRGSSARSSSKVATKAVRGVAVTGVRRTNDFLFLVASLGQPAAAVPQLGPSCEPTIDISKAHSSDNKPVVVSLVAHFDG

[3] = biological target: T4, medaka TMT1A opsin (C-terminally truncated) (Oryzias latipes, UniProt R9R6D2, T190S); experiment: UV-visible spectroscopy before and after irradiation; format: binding; details: covalent (Schiff base); 0 °C; bovine rhodopsin numbering; truncation of mutant not stated
T4 construct: gene tmtops1a; C-terminal 63 residues deleted; C-terminal rho1D4 tag (ETSQVAPA) kept; HEK293T, pMT4; purified in dodecyl maltoside, also membranes; cDNA cloned from medaka brain

[4] = biological target: T1, medaka TMT1A opsin (C-terminally truncated); experiment: UV-visible spectroscopy; HPLC of chromophore; GTPγS exchange with Gi and Go; format: biochemical; details: covalent (protonated Schiff base); agonist; formed in situ by blue light (460 nm); 0 °C
medaka TMT2 opsin [5] = biological target: T2, medaka TMT2 opsin; experiment: UV-visible spectroscopy; acid denaturation; HPLC; GTPγS exchange with Gi and Go; format: biochemical; details: covalent (unprotonated Schiff base); agonist; formed in situ by blue light (460 nm); 0 °C

T4 sequence (R9R6D2 entry or part of it T190S): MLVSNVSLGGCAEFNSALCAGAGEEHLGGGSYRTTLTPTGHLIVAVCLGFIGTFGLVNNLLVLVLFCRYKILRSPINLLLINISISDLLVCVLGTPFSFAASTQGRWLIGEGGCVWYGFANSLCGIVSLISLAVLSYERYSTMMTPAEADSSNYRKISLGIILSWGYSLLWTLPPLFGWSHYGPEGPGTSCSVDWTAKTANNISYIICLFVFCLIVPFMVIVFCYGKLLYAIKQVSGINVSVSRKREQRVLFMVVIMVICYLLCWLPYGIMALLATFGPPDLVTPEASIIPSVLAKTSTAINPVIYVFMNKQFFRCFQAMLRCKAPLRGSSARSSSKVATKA

CC1=C(\C=C/C(C)=C/C=C/C(C)=C/C=O)C(C)(C)CCC1 [7-cis-retinal] was tested, and the “UV-visible spectroscopy; HPLC of chromophore” value [1] was “showed the formation of products having 9-cis and 7-cis forms (Fig 2E)”.

In the case of CC1=C(/C=C/C(C)=C\C=C\C(C)=C\C=O)C(C)(C)CCC1 [9-cis-retinal], the “UV-visible spectroscopy; HPLC of chromophore” value [1] is reported as “showed the formation of products having 9-cis and 7-cis forms (Fig 2E)”.

In the case of CC1=C(/C=C/C(C)=C/C=C\C(C)=C\C=O)C(C)(C)CCC1 [11-cis-retinal], the “UV-visible spectroscopy; HPLC of chromophore” value (medaka TMT2 opsin [2]) is reported as “partially purified pigment of TMT2 opsin after reconstitution with 11-cis-retinal”, the UV-visible spectroscopy (full-length TMT1A opsin) is reported as “Full-length pigment was formed after reconstitution with 11-cis-retinal” and the “UV-visible spectroscopy before and after irradiation” value [3] is reported as “We then constructed a single mutant (T186S) of TMT1A opsin”.

In the case of CC1=C(/C=C/C(C)=C/C=C/C(C)=C/C=O)C(C)(C)CCC1 [all-trans-retinal], the “UV-visible spectroscopy; HPLC of chromophore; GTPγS exchange with Gi and Go” value [4] is reported as “indicating that the all-trans product is a G protein-activating state” and the “UV-visible spectroscopy; acid denaturation; HPLC; GTPγS exchange with Gi and Go” value (medaka TMT2 opsin [5]) is reported as “indicating that the all-trans product was the G protein-activating state of TMT2 opsin”.
